Reference: patent US20250064941A1, “SIGLEC LIGANDS, CONJUGATES, AND METHODS OF USE THEREOF” (Osprey Biopharmaceuticals, Inc., priority 2023, published 2025)

Assays:
cynomolgus Siglec-2/CD22 = cynomolgus Siglec-2/CD22 (Macaca fascicularis, UniProt A0A2K5WCZ6); assay: biochemical; assay type: binding; conditions: SPR, steady-state analysis; read-out: Affinity cyno CD22
Method in brief: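 SPR with desialylated (SialoExo, 4 h, 37° C.) cynomolgus CD22 amine-coupled to a CM5 chip. Running buffer 10 mM HEPES, 150 mM NaCl, 0.05% Tween-20, pH 7.5, 1% DMSO, with solvent correction; 120 s dissociation. Affinities from steady-state analysis.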

[1] = target: T1, mouse Siglec-2-Fc-Avi (CD22) (Mus musculus, UniProt P35329); assay: SPR binding affinity to mouse CD22; conditions: steady-state analysis
T1 construct: made in house
T1 sequence (P35329 22-708 limits assumed): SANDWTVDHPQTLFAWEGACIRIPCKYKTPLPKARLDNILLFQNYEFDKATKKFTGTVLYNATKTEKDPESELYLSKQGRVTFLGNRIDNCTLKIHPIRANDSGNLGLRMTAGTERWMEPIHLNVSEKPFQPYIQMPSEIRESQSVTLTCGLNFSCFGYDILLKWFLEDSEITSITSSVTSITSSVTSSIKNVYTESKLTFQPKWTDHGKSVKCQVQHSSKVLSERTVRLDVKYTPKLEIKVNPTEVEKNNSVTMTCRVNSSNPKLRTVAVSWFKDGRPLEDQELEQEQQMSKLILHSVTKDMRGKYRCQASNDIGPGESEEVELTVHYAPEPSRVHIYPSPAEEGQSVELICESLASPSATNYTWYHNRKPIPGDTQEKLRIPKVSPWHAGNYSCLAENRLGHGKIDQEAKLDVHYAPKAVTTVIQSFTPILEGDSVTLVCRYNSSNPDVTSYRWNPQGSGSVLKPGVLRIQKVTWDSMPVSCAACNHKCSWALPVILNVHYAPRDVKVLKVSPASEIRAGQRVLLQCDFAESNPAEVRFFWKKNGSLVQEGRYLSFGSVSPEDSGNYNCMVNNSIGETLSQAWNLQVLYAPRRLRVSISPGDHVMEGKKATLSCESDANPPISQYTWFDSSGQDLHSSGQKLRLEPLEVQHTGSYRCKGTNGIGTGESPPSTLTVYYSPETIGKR
Method in brief: (§1)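 Using a Biacore 8K, compounds were tested against biotinylated CD22 captured after sialidase treatment. The running buffer held 1% DMSO, corrected with a 0.5–2% DMSO series. Affinity was derived by steady-state analysis.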

[2] = target: T2, human Siglec-2/CD22 protein (Homo sapiens, UniProt P20273); assay: SPR binding affinity to human CD22; conditions: steady-state analysis
T2 construct: purchased Acro Biosystems SI2-H82E3
T2 sequence (P20273 20-847): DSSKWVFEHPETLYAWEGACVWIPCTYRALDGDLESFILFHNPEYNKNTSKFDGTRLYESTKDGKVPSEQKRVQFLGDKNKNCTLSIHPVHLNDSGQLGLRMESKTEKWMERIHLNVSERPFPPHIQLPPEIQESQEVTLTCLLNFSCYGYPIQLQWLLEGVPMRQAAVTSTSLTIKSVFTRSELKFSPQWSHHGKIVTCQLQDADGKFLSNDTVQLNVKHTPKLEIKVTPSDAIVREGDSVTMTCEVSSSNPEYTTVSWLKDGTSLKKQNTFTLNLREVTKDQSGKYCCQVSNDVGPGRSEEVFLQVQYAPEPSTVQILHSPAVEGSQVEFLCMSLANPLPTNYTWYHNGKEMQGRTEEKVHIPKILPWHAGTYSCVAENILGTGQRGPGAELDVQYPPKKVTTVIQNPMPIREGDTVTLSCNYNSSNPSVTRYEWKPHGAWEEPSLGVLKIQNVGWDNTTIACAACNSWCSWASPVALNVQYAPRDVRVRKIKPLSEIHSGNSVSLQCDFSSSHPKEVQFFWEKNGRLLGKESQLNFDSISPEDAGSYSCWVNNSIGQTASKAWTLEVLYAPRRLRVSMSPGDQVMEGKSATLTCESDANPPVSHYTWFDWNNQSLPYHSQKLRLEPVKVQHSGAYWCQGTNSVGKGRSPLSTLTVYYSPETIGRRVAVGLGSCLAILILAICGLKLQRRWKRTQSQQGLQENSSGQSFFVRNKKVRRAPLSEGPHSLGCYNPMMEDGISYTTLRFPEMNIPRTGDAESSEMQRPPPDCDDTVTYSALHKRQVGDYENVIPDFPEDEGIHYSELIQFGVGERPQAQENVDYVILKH
Method in brief: as §1

Chain of cynomolgus Siglec-2/CD22 (A0A2K5WCZ6 entry or part of it): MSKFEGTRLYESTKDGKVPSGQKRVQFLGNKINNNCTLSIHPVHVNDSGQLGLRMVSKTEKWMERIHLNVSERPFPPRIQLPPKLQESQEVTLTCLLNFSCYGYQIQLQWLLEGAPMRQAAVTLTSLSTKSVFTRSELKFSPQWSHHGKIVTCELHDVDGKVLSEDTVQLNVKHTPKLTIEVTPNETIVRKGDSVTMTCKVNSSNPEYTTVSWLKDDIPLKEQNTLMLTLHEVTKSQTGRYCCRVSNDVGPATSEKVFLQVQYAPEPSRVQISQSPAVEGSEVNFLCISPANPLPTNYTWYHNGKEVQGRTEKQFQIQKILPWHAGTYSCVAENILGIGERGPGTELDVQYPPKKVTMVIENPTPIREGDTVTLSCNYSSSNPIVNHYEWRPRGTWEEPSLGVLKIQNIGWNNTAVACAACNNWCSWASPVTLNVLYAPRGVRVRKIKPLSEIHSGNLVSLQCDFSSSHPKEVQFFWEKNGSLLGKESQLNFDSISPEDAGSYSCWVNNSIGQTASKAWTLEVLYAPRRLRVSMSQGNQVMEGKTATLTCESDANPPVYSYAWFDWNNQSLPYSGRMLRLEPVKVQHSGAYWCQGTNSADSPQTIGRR

Row | Kd (cynomolgus Siglec-2/CD22) | Kd [1] | Kd [2] | Compound
1 | < 1000 nM | 1000 to 10000 nM | < 1000 nM | O=C(O)CCCCCCO[C@]1(C(=O)O)C[C@H](O)[C@@H](NC(=O)CO)[C@H]([C@H](O)[C@H](O)CNC(=O)Cc2cccc(O)c2)O1 [Compound 143, (2R,4S,5R,6R)-2-((6-carboxyhexyl)oxy)-6-((1R,2R)-1,2-dihydroxy-3-(2-(3-hydroxyphenyl)acetamido)propyl)-4-hydroxy-5-(2-hydroxyacetamido)tetrahydro-2H-pyran-2-carboxylic acid]
2 | > 10000 nM | > 10000 nM | 1000 to 10000 nM | C#CCOCCOCCO[C@]1(C(=O)O)C[C@H](O)[C@@H](NC(=O)CO)[C@H]([C@H](O)[C@H](O)CNC(=O)Cc2ccc3c(c2)CC(=O)N3)O1 [Compound 11, (2R,4S,5R,6R)-6-((1R,2R)-1,2-dihydroxy-3-(2-(2-oxoindolin-5-yl)acetamido)propyl)-4-hydroxy-5-(2-hydroxyacetamido)-2-(2-(2-(prop-2-yn-1-yloxy)ethoxy)ethoxy)tetrahydro-2H-pyran-2-carboxylic acid]
3 | > 10000 nM | > 10000 nM | 1000 to 10000 nM | C#CCCOc1ccc(CO[C@]2(C(=O)O)C[C@H](O)[C@@H](NC(=O)CO)[C@H]([C@H](O)[C@H](O)CNC(=O)Cc3ccc4[nH]c(=O)[nH]c4c3)O2)cc1 [Compound 7, (2R,4S,5R,6R)-2-((4-(but-3-yn-1-yloxy)benzyl)oxy)-6-((1R,2R)-1,2-dihydroxy-3-(2-(2-oxo-2,3-dihydro-1H-benzo[d]imidazol-5-yl)acetamido)propyl)-4-hydroxy-5-(2-hydroxyacetamido)tetrahydro-2H-pyran-2-carboxylic acid]
4 | < 1000 nM | 1000 to 10000 nM | < 1000 nM | CC(=O)NCCOCCOCCOCCOCCC(=O)NCCCCCO[C@]1(C(=O)O)C[C@H](O)[C@@H](NC(=O)CO)[C@H]([C@H](O)[C@H](O)CNC(=O)Cc2ccc(Cl)cc2)O1 [Cpd. 241, (2R,4S,5R,6R)-6-((1R,2R)-3-(2-(4-chlorophenyl)acetamido)-1,2-dihydroxypropyl)-2-((2,18-dioxo-6,9,12,15-tetraoxa-3,19-diazatetracosan-24-yl)oxy)-4-hydroxy-5-(2-hydroxyacetamido) tetrahydro-2H-pyran-2-carboxylic acid]
5 | < 1000 nM | 1000 to 10000 nM | < 1000 nM | CC(=O)NCCOCCOCCOCCOCc1cn(CCCCCCO[C@]2(C(=O)O)C[C@H](O)[C@@H](NC(=O)CO)[C@H]([C@H](O)[C@H](O)CNC(=O)Cc3ccc(C(F)F)cc3)O2)nn1 [Compound 252, (2R,4S,5R,6R)-6-((1R,2R)-3-(2-(4-(difluoromethyl)phenyl)acetamido)-1,2-dihydroxypropyl)-4-hydroxy-5-(2-hydroxyacetamido)-2-((6-(4-(15-oxo-2,5,8,11-tetraoxa-14-azahexadecyl)-1H-1,2,3-triazol-1-yl)hexyl)oxy) tetrahydro-2H-pyran-2-carboxylic acid]
6 | < 1000 nM | < 1000 nM | < 1000 nM | C#CCOCCNC(=O)NCCCCCCO[C@]1(C(=O)O)C[C@H](O)[C@@H](NC(=O)CO)[C@H]([C@H](O)[C@H](O)CNC(=O)Cc2ccc(Cl)cc2)O1 [Compound 218, (2R,4S,5R,6R)-6-((1R,2R)-3-(2-(4-chlorophenyl)acetamido)-1,2-dihydroxypropyl)-4-hydroxy-5-(2-hydroxyacetamido)-2-((6-(3-(2-(prop-2-yn-1-yloxy)ethyl)ureido)hexyl)oxy)tetrahydro-2H-pyran-2-carboxylic acid]
7 | < 1000 nM | < 1000 nM | < 1000 nM | C#CCOCCCCCCO[C@]1(C(=O)O)C[C@H](O)[C@@H](NC(=O)CO)[C@H]([C@H](O)[C@H](O)CNC(=O)Cc2ccc(-c3ccc(O)cc3)cc2)O1 [Compound 63, (2R,4S,5R,6R)-6-((1R,2R)-1,2-dihydroxy-3-(2-(4′-hydroxy-[1,1′-biphenyl]-4-yl)acetamido)propyl)-4-hydroxy-5-(2-hydroxyacetamido)-2-((6-(prop-2-yn-1-yloxy)hexyl)oxy)tetrahydro-2H-pyran-2-carboxylic acid]
8 | 1000 to 10000 nM | 1000 to 10000 nM | 1000 to 10000 nM | C#CCCOc1ccc(CO[C@]2(C(=O)O)C[C@H](O)[C@@H](NC(=O)CO)[C@H]([C@H](O)[C@H](O)CNC(=O)C(F)(F)c3ccccc3)O2)cc1 [Compound 172, (2R,4S,5R,6R)-2-((4-(but-3-yn-1-yloxy)benzyl)oxy)-6-((1R,2R)-3-(2,2-difluoro-2-phenylacetamido)-1,2-dihydroxypropyl)-4-hydroxy-5-(2-hydroxyacetamido)tetrahydro-2H-pyran-2-carboxylic acid]
9 | 1000 to 10000 nM | > 10000 nM | 1000 to 10000 nM | O=C(O)CCCO[C@]1(C(=O)O)C[C@H](O)[C@@H](NC(=O)CO)[C@H]([C@H](O)[C@H](O)CNC(=O)Cc2ccc(Cl)cc2)O1 [Compound 118, (2R,4S,5R,6R)-2-(3-carboxypropoxy)-6-((1R,2R)-3-(2-(4-chlorophenyl)acetamido)-1,2-dihydroxypropyl)-4-hydroxy-5-(2-hydroxyacetamido)tetrahydro-2H-pyran-2-carboxylic acid]
10 | < 1000 nM | < 1000 nM | < 1000 nM | O=C(O)CCCCCCCCCCCCCCCO[C@]1(C(=O)O)C[C@H](O)[C@@H](NC(=O)CO)[C@H]([C@H](O)[C@H](O)CNC(=O)Cc2ccc(Cl)cc2)O1 [Compound 99, (2R,4S,5R,6R)-2-((15-carboxypentadecyl)oxy)-6-((1R,2R)-3-(2-(4-chlorophenyl)acetamido)-1,2-dihydroxypropyl)-4-hydroxy-5-(2-hydroxyacetamido)tetrahydro-2H-pyran-2-carboxylic acid]
11 | 1000 to 10000 nM | > 10000 nM | 1000 to 10000 nM | C#CCCOc1cccc(CO[C@]2(C(=O)O)C[C@H](O)[C@@H](NC(C)=O)[C@H]([C@H](O)[C@H](O)CNC(=O)c3cccc(Oc4ccccc4)c3)O2)c1 [Compound 23, (2R,4S,5R,6R)-5-acetamido-2-((3-(but-3-yn-1-yloxy)benzyl)oxy)-6-((1R,2R)-1,2-dihydroxy-3-(3-phenoxybenzamido)propyl)-4-hydroxytetrahydro-2H-pyran-2-carboxylic acid]
12 | < 1000 nM | 1000 to 10000 nM | < 1000 nM | C#CCOCCCCCCO[C@]1(C(=O)O)C[C@H](O)[C@@H](NC(=O)N(C)C)[C@H]([C@H](O)[C@H](O)CNC(=O)Cc2ccc(Cl)cc2)O1 [Compound 85, (2R,4S,5R,6R)-6-((1R,2R)-3-(2-(4-chlorophenyl)acetamido)-1,2-dihydroxypropyl)-5-(3,3-dimethylureido)-4-hydroxy-2-((6-(prop-2-yn-1-yloxy)hexyl)oxy)tetrahydro-2H-pyran-2-carboxylic acid]
13 | 1000 to 10000 nM | < 1000 nM | < 1000 nM | C#CCCOc1ccc(CS[C@]2(C(=O)O)C[C@H](O)[C@@H](NC(=O)CO)[C@H]([C@H](O)[C@H](O)CNC(=O)Cc3ccc(O)cc3)O2)cc1 [Compound 148, (2S,4S,5R,6R)-2-((4-(but-3-yn-1-yloxy)benzyl)thio)-6-((1R,2R)-1,2-dihydroxy-3-(2-(4-hydroxyphenyl)acetamido)propyl)-4-hydroxy-5-(2-hydroxyacetamido)tetrahydro-2H-pyran-2-carboxylic acid]
